Measurements: the C3SDB collision cross section collection

Key:
[1] = instrument: TW, calibrated with phosphatidylcholines (ESI+) and phosphatidylethanolamines (ESI-), doubly charged cardiolipins calibrated with poly-DL-…
[2] = [M+H]+; instrument: TW
[3] = instrument: DT, stepped-field

SMILES | collision cross section (N2) ([1]; [M+Na]+) | collision cross section (N2) ([1]; [M-H]-) | collision cross section (N2) ([1]; [M-2H]2-) | also measured
CCCCCC/C=C\CCCCCCCC(=O)OC[C@H](COP(=O)(O)OCCNC(=O)CCCCCCCCCCCCCCC)OC(=O)CCCCCCCCCCCCCCCCC [AcylPE(50:1)] | 330.1 Å² | 323.73 Å² | – | –
CCCCCC/C=C\CCCCCCCC(=O)OC[C@H](COP(=O)(O)OC[C@@H](O)COC(=O)CCCCCCCCCCCCCCC)OC(=O)CCCCCCCCCCCCCC [AcylPG(47:1)] | 326 Å² | 313.72 Å² | – | –
CCCCCC/C=C\CCCCCCCC(=O)OC[C@H](COP(=O)(O)OC[C@@H](O)COC(=O)CCCCCCCCCCCCCCC)OC(=O)CCCCCCC/C=C\CCCCCCCC [AcylPG(50:2)] | 333.1 Å² | 322.71 Å² | – | –
CCCCCC/C=C\CCCCCCCC(=O)OC[C@H](COP(=O)(O)OC[C@@H](O)COC(=O)CCCCCCCCCCCCCCC)OC(=O)CCCCCCC/C=C\CCCCCCCCCC [AcylPG(52:2)] | – | 330.34 Å² | – | –
CCCCCC/C=C\CCCCCCCC(=O)OC[C@H](O)COP(=O)(O)OC[C@@H](COC(=O)CCCCCCC/C=C\CCCCCC)OC(=O)CCCCCCC/C=C/CCCCCCCCCC [AcylPG(52:3)] | – | 328.87 Å² | – | –
CCCCCC/C=C\CCCCCCCC(=O)OC[C@H](O)COP(=O)(O)OC[C@@H](COC(=O)CCCCCCC/C=C\CCCCCC)OC(=O)CCCCCCCC1CC1CCCCCCCCCC (some centres not stated) [AcylPG(53:3)] | – | 332.67 Å² | – | –
CCCCCC/C=C\CCCCCCCC(=O)OC(COC(=O)CCCCCCCCCCCCCCC)COP(=O)(O)OCC(O)COP(=O)(O)OCC(COC(=O)CCCCCCCCCCCCC)OC(=O)CCCCCCCCCCCCCCC (configuration not stated) [CL(62:1)] | – | – | – | collision cross section (N2) ([1]; [M+2K]2+): 419.8 Å²
CCCCCC/C=C\CCCCCCCC(=O)OC(COC(=O)CCCCCCCCCCCCC)COP(=O)(O)OCC(O)COP(=O)(O)OCC(COC(=O)CCCCCCCCCCCCCCC)OC(=O)CCCCCCC/C=C\CCCCCC (configuration not stated) [CL(62:2)] | – | – | – | collision cross section (N2) ([1]; [M+2K]2+): 418.5 Å²
CCCCCC/C=C\CCCCCCCC(=O)OC(COC(=O)CCCCCCCCCCCCCCC)COP(=O)(O)OCC(O)COP(=O)(O)OCC(COC(=O)CCCCCCCCCCCCCC)OC(=O)CCCCCCCCCCCCCCC (configuration not stated) [CL(63:1)] | – | – | 394.72 Å² | collision cross section (N2) ([1]; [M+2K]2+): 421.5 Å²
CCCCCC/C=C\CCCCCCCC(=O)OC(COC(=O)CCCCCCCCCCCCCC)COP(=O)(O)OCC(O)COP(=O)(O)OCC(COC(=O)CCCCCCCCCCCCCCC)OC(=O)CCCCCCC/C=C\CCCCCC (configuration not stated) [CL(63:2)] | – | – | 394.34 Å² | collision cross section (N2) ([1]; [M+2K]2+): 421 Å²
CCCCCC/C=C\CCCCCCCC(=O)OCC(COP(=O)(O)OCC(O)COP(=O)(O)OCC(COC(=O)CCCCCCCCCCCCCCC)OC(=O)CCCCCCC/C=C\CCCCCC)OC(=O)CCCCCCC/C=C\CCCCCC (configuration not stated) [CL(64:3)] | – | – | 397.47 Å² | –
CCCCCC/C=C\CCCCCCCC(=O)OCC(COP(=O)(O)OCC(O)COP(=O)(O)OCC(COC(=O)CCCCCCCCCCCCCCC)OC(=O)CCCCCCCC1CC1CCCCCC)OC(=O)CCCCCCC/C=C\CCCCCC (configuration not stated) [CL(65:3)] | – | – | 400.07 Å² | collision cross section (N2) ([1]; [M+2K]2+): 424.2 Å²
CCCCCC/C=C\CCCCCCCC(=O)OC(COC(=O)CCCCCCCCCCCCCCC)COP(=O)(O)OCC(O)COP(=O)(O)OCC(COC(=O)CCCCCCCCCCCCCCC)OC(=O)CCCCCCC/C=C\CCCCCCCC (configuration not stated) [CL(66:2)] | – | – | 402.26 Å² | collision cross section (N2) ([1]; [M+2K]2+): 426.8 Å²
CCCCCC/C=C\CCCCCCCC(=O)OCC(COP(=O)(O)OCC(O)COP(=O)(O)OCC(COC(=O)CCCCCCCCCCCCCCC)OC(=O)CCCCCCC/C=C\CCCCCCCC)OC(=O)CCCCCCC/C=C\CCCCCC (configuration not stated) [CL(66:3)] | – | – | 401.91 Å² | collision cross section (N2) ([1]; [M+2K]2+): 425.7 Å²
CCCCCC/C=C\CCCCCCCC(=O)OCC(COP(=O)(O)OCC(O)COP(=O)(O)OCC(COC(=O)CCCCCCC/C=C\CCCCCC)OC(=O)CCCCCCC/C=C\CCCCCCCC)OC(=O)CCCCCCC/C=C\CCCCCC (configuration not stated) [CL(66:4)] | – | – | 401.68 Å² | –
CCCCCCCC/C=C\CCCCCCCC(=O)OC(COC(=O)CCCCCCCCCCCCCCC)COP(=O)(O)OCC(O)COP(=O)(O)OCC(COC(=O)CCCCCCCC1CC1CCCCCC)OC(=O)CCCCCCCCCCCCCCC (configuration not stated) [CL(67:2)] | – | – | 404.3 Å² | collision cross section (N2) ([1]; [M+2K]2+): 427.9 Å²
CCCCCCCC/C=C\CCCCCCCC(=O)OCC(COP(=O)(O)OCC(O)COP(=O)(O)OCC(COC(=O)CCCCCCCCCCCCCCC)OC(=O)CCCCCCC/C=C\CCCCCCCC)OC(=O)CCCCCCCCCCCCCCC (configuration not stated) [CL(68:2)] | – | – | 407.34 Å² | –
CCCCCC/C=C\CCCCCCCC(=O)OC(COC(=O)CCCCCCC/C=C\CCCCCCCC)COP(=O)(O)OCC(O)COP(=O)(O)OCC(COC(=O)CCCCCCCCCCCCCCC)OC(=O)CCCCCCC/C=C\CCCCCCCC (configuration not stated) [CL(68:3)] | – | – | 407.14 Å² | –
CCCCCCCCCCCCCC(=O)O[C@H](CO)COP(=O)([O-])OCC[NH3+] [LPE(0:0/14:0)] | 213.66 Å² | 198.83 Å² | – | collision cross section (N2) ([1]; [M+H]+): 208.79 Å²
CCCCC1CC1CCCCCCCC(=O)O[C@H](CO)COP(=O)([O-])OCC[NH3+] (some centres not stated) [LPE(0:0/15:1)] | – | 199.81 Å² | – | –
CCCCCCCCCCCCCCCC(=O)O[C@H](CO)COP(=O)([O-])OCC[NH3+] [LPE(0:0/16:0)] | 220.61 Å² | 206.05 Å² | – | collision cross section (N2) ([1]; [M+H]+): 216.39 Å²
CCCCCC/C=C/CCCCCCCC(=O)O[C@H](CO)COP(=O)([O-])OCC[NH3+] [LPE(0:0/16:1)] | 212.72 Å² | 203.66 Å² | – | collision cross section (N2) ([1]; [M+H]+): 208.94 Å²
CCCCCCCCCCCCCCC(=O)OC[C@@H](O)COP(=O)([O-])OCC[NH3+] [LPE(15:0/0:0)] | 216.13 Å² | 202.83 Å² | – | collision cross section (N2) ([1]; [M+H]+): 209.91 Å²
CCCCCCCCCCCCCCCC(=O)OC[C@@H](O)COP(=O)([O-])OCC[NH3+] [LPE(16:0/0:0)] | 220.01 Å² | 206.89 Å² | – | collision cross section (N2) ([1]; [M+H]+): 213.91 Å²
CCCCCCC1CC1CCCCCCCC(=O)OC[C@@H](O)COP(=O)([O-])OCC[NH3+] (some centres not stated) [LPE(17:1/0:0)] | 219.72 Å² | 208.15 Å² | – | collision cross section (N2) ([1]; [M+H]+): 212.27 Å²
CCc1cccc(C)c1N(C(=O)CCl)C(C)COC (configuration not stated) [Metolachlor] | – | – | – | collision cross section (N2) [2]: 158.23 Å²; collision cross section (N2) ([3]; [M+H]+): 161.46 Å²; collision cross section (N2) ([3]; [M+Na]+): 175.84 Å²
CSc1nnc(C(C)(C)C)c(=O)n1N [Metribuzin] | – | – | – | collision cross section (N2) [2]: 146.95 Å²; collision cross section (N2) ([3]; [M+H]+): 150.5 Å²; collision cross section (N2) ([3]; [M+Na]+): 171.27 Å²
